From publication PMC12196264, “Design and Synthesis of Pyridine-Based Pyrrolo[2,3-d]pyrimidine Analogs as CSF1R Inhibitors: Molecular Hybridization and Scaffold Hopping Approach” (Pharmaceuticals, 2025)
≈ marks a conversion by molar mass, not a printed value.

Tests used:
[1] = Microsomal stability, mouse liver microsomes; assay type: in vitro ADME; conditions: mouse liver microsome
Protocol: (§1) The aqueous solubility of the compounds and metabolic stability under oxidative conditions was performed as described previously.

[2] = Kinetic solubility; assay type: physicochemical; conditions: aqueous buffer, kinetic from dmso stock; spectrophotometric, pH 7.4 in HEPES buffer
Protocol: as §1

[3] = test system: Ba/F3 cells engineered to be dependent on CSF1R; assay: Cell viability assay with Ba/F3-hCSF1R cells; assay type: cell-based
Protocol: (§2) Given the promising enzymatic activity of the synthesized derivatives, cellular assays were performed using Ba/F3 cells engineered to depend on constitutively active CSF1R. […] We have also previously observed a low correlation between enzymatic and cellular activities, which may arise from the enzymatic protein construct not accurately mimicking the active conformation of CSF1R in a cellular context.
(§3) Performed as reported previously.

[4] = molecular target: LYN A (Homo sapiens, UniProt P07948); assay: Kinase panel; assay type: biochemical
Protocol: (§4) Ta b l e S 1. Inhibition (%) by compound 14c towards di7erent kinases. Values are average of two
(§5) measurements at 1000 nM test concentration. The ATP concentration was equal to KM.
(§6) Kinase ATP conc. % inhibition

[5] = molecular target: FLT1 (Homo sapiens, UniProt P17948); assay: Kinase panel; assay type: biochemical
Protocol: as §4, §5, §6

[6] = molecular target: MINK1 (Homo sapiens, UniProt Q8N4C8); assay: Kinase panel; assay type: biochemical
MINK1, sequence (Q8N4C8 whole entry, species assumed): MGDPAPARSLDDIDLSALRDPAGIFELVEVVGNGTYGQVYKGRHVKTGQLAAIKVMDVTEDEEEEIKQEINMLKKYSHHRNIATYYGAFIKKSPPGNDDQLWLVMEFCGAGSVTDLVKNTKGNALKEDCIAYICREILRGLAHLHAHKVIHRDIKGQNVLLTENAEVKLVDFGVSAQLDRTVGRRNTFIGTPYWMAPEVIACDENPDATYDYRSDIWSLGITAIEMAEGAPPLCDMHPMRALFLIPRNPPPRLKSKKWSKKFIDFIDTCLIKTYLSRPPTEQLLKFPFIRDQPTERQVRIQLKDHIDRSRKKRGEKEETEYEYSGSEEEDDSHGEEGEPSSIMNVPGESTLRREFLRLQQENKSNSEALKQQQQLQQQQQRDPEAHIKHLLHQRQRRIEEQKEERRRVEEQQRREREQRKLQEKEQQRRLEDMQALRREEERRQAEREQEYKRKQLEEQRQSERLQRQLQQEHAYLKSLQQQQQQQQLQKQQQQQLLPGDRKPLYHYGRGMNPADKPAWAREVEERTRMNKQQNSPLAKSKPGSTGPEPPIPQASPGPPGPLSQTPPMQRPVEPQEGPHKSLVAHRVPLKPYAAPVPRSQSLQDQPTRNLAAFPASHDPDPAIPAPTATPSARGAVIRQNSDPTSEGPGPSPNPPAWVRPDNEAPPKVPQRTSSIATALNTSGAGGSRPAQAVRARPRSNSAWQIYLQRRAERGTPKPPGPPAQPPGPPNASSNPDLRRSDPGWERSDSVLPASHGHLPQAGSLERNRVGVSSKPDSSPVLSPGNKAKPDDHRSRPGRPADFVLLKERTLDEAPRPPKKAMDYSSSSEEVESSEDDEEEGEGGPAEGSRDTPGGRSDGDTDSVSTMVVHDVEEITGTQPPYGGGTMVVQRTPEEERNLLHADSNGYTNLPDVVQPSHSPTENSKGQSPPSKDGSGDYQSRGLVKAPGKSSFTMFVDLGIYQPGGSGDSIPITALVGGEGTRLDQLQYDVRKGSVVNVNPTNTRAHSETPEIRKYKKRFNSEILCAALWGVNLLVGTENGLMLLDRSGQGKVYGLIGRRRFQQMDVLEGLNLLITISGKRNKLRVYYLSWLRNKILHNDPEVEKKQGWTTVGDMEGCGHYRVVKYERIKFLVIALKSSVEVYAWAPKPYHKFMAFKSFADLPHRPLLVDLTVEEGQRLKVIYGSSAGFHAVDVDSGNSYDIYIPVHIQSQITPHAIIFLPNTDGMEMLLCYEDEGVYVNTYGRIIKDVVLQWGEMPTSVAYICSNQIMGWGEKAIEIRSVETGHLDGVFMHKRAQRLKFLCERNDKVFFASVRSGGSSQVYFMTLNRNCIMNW
Protocol: as §4, §5, §6

[7] = molecular target: EGFR (Homo sapiens, UniProt P00533); assay: Kinase panel; assay type: biochemical
Protocol: as §4, §5, §6

[8] = molecular target: KIT (Homo sapiens, UniProt P10721); assay: Kinase panel; assay type: biochemical
Protocol: as §4, §5, §6

[9] = molecular target: CAMK1D (Homo sapiens, UniProt Q8IU85); assay: Kinase panel; assay type: biochemical
Protocol: as §4, §5, §6

[10] = molecular target: CLK1 (Homo sapiens, UniProt P49759); assay: Kinase panel; assay type: biochemical
Protocol: as §4, §5, §6

[11] = molecular target: FRAP1 (Homo sapiens, UniProt P42345); assay: Kinase panel; assay type: biochemical
Protocol: as §4, §5, §6

[12] = molecular target: ROCK1 (Homo sapiens, UniProt Q13464); assay: Kinase panel; assay type: biochemical
ROCK1, sequence (Q13464 whole entry, species assumed): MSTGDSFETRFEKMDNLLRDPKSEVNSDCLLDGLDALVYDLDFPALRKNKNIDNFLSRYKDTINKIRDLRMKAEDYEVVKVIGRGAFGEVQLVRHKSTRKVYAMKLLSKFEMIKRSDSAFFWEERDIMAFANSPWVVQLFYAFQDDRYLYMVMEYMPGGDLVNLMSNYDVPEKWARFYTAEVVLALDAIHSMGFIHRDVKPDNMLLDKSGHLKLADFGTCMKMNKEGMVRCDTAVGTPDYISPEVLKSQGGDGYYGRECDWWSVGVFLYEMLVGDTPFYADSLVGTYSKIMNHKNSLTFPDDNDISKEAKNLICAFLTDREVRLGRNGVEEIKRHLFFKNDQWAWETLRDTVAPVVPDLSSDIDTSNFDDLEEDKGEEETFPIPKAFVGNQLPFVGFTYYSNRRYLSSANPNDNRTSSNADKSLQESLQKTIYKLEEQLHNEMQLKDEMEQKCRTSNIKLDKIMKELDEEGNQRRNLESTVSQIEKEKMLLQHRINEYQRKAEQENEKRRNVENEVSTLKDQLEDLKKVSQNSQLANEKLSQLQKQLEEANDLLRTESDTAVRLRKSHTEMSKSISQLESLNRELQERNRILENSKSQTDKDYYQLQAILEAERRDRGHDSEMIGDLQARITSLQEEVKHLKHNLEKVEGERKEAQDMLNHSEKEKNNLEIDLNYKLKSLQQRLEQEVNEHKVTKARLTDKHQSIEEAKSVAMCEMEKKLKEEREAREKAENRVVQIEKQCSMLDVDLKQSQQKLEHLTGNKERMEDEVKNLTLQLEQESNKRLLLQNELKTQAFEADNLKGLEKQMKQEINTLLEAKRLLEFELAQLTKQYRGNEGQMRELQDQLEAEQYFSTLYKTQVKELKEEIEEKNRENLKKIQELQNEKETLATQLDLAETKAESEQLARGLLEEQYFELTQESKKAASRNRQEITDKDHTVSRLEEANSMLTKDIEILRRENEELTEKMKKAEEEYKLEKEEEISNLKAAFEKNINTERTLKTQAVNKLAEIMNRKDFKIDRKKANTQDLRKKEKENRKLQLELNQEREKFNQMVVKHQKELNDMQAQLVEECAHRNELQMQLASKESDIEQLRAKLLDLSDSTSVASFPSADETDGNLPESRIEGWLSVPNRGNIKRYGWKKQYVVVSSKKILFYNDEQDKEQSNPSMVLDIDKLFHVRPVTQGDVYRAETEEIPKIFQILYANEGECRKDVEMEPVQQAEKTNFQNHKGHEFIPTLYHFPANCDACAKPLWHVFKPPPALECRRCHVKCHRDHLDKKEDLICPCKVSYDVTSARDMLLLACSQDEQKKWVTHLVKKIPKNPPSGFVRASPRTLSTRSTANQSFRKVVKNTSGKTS
Protocol: as §4, §5, §6

[13] = molecular target: BLK (Homo sapiens, UniProt P51451); assay: Kinase panel; assay type: biochemical
Protocol: as §4, §5, §6

[14] = molecular target: LYN B (Homo sapiens, UniProt P07948); assay: Kinase panel; assay type: biochemical
Protocol: as §4, §5, §6

[15] = molecular target: CSF1R (Homo sapiens, UniProt P07333); assay: Kinase panel; assay type: biochemical
Protocol: as §4, §5, §6

[16] = molecular target: FER (Homo sapiens, UniProt P16591); assay: Kinase panel; assay type: biochemical
Protocol: as §4, §5, §6

[17] = molecular target: BTK (Homo sapiens, UniProt Q06187); assay: Kinase panel; assay type: biochemical
Protocol: as §4, §5, §6

[18] = molecular target: PLK1 (Homo sapiens, UniProt P53350); assay: Kinase panel; assay type: biochemical
Protocol: as §4, §5, §6

[19] = molecular target: FLT4 (Homo sapiens, UniProt P35916); assay: Kinase panel; assay type: biochemical
Protocol: as §4, §5, §6

[20] = molecular target: HCK (Homo sapiens, UniProt P08631); assay: Kinase panel; assay type: biochemical
Protocol: as §4, §5, §6

[21] = molecular target: Aurora B (Homo sapiens, UniProt Q96GD4); assay: Kinase panel; assay type: biochemical
Protocol: as §4, §5, §6

[22] = molecular target: RET (Homo sapiens, UniProt P07949); assay: Kinase panel; assay type: biochemical
Protocol: as §4, §5, §6

[23] = molecular target: SRC (Homo sapiens, UniProt P12931); assay: Kinase panel; assay type: biochemical
Protocol: as §4, §5, §6

[24] = molecular target: ERBB2 (Homo sapiens, UniProt P04626); assay: Kinase panel; assay type: biochemical
ERBB2, sequence (P04626 23-1255, species assumed): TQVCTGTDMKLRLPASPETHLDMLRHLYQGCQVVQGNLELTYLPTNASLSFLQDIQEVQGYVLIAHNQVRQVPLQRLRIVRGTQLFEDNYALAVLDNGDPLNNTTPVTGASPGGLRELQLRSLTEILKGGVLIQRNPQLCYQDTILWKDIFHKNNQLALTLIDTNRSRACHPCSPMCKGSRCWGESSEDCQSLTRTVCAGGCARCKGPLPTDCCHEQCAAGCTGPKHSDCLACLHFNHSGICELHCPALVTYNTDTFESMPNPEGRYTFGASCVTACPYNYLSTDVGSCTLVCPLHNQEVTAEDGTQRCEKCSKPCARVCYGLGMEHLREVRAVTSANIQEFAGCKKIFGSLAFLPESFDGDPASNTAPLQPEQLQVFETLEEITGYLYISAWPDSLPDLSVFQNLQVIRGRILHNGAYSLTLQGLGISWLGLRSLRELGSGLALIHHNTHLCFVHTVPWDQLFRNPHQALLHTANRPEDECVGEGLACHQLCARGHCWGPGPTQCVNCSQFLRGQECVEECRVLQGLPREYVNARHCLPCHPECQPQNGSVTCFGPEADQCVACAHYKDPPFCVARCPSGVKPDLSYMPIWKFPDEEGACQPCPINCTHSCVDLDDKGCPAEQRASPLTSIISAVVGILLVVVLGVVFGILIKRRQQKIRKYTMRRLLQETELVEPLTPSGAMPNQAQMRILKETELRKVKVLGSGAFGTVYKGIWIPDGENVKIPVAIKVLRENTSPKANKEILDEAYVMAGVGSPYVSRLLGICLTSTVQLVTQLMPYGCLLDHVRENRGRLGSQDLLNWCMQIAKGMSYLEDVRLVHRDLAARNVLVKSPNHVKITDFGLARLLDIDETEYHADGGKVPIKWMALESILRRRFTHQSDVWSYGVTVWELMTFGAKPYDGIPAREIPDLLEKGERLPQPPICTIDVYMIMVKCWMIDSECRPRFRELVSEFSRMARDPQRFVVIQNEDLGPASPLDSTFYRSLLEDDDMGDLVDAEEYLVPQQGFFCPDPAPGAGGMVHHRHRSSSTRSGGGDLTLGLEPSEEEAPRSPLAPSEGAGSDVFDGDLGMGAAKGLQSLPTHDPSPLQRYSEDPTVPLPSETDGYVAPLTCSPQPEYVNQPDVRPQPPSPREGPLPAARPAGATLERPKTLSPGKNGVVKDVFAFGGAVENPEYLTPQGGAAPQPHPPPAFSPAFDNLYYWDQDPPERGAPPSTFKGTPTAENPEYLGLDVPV
Protocol: as §4, §5, §6

[25] = molecular target: LTK (Homo sapiens, UniProt P29376); assay: Kinase panel; assay type: biochemical
Protocol: as §4, §5, §6

[26] = molecular target: GSK3B (Homo sapiens, UniProt P49841); assay: Kinase panel; assay type: biochemical
GSK3B, sequence (P49841 whole entry, species assumed): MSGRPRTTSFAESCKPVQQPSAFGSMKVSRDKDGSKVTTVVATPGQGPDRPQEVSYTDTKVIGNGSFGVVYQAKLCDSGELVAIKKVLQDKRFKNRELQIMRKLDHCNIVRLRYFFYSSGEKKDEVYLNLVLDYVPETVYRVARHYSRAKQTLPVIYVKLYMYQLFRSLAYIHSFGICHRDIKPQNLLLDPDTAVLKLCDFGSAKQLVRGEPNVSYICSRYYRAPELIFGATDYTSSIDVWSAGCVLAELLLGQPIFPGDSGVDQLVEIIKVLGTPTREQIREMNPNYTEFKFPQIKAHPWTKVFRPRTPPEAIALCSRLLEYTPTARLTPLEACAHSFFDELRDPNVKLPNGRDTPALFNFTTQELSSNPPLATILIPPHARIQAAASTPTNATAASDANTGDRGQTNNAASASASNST
Protocol: as §4, §5, §6

[27] = molecular target: FYN (Homo sapiens, UniProt P06241); assay: Kinase panel; assay type: biochemical
Protocol: as §4, §5, §6

[28] = molecular target: PAK1 (Homo sapiens, UniProt Q13153); assay: Kinase panel; assay type: biochemical
Protocol: as §4, §5, §6

[29] = molecular target: DYRK1A (Homo sapiens, UniProt Q13627); assay: Kinase panel; assay type: biochemical
Protocol: as §4, §5, §6

[30] = molecular target: YES1 (Homo sapiens, UniProt P07947); assay: Kinase panel; assay type: biochemical
Protocol: as §4, §5, §6

[31] = molecular target: AKT1 (Homo sapiens, UniProt P31749); assay: Kinase panel; assay type: biochemical
Protocol: as §4, §5, §6

[32] = molecular target: TEK (Homo sapiens, UniProt Q02763); assay: Kinase panel; assay type: biochemical
Protocol: as §4, §5, §6

[33] = molecular target: ABL2 (Homo sapiens, UniProt P42684); assay: Kinase panel; assay type: biochemical
Protocol: as §4, §5, §6

[34] = molecular target: ALK (Homo sapiens, UniProt Q9UM73); assay: Kinase panel; assay type: biochemical
Protocol: as §4, §5, §6

[35] = molecular target: JAK2 (Homo sapiens, UniProt O60674); assay: Kinase panel; assay type: biochemical
Protocol: as §4, §5, §6

[36] = molecular target: ERBB4 (Homo sapiens, UniProt Q15303); assay: Kinase panel; assay type: biochemical
Protocol: as §4, §5, §6

[37] = molecular target: MKNK1 (Homo sapiens, UniProt Q9BUB5); assay: Kinase panel; assay type: biochemical
MKNK1, sequence (Q9BUB5 whole entry, species assumed): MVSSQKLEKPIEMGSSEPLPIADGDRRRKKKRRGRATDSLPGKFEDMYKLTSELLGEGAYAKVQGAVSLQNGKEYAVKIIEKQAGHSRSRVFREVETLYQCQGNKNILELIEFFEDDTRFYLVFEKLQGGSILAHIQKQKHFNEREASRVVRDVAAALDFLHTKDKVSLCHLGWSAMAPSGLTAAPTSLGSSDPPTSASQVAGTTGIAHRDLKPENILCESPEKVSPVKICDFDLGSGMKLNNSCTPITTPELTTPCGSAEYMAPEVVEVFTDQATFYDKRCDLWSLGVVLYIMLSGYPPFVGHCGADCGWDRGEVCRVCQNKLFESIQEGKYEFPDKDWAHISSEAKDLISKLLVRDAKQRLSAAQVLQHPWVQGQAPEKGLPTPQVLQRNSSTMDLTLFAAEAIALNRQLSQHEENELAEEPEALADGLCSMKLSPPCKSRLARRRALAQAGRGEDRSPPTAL
Protocol: as §4, §5, §6

[38] = molecular target: EPHA2 (Homo sapiens, UniProt P29317); assay: Kinase panel; assay type: biochemical
Protocol: as §4, §5, §6

[39] = molecular target: NEK1 (Homo sapiens, UniProt Q96PY6); assay: Kinase panel; assay type: biochemical
Protocol: as §4, §5, §6

[40] = test system: Ba/F3 cells engineered to be dependent on CSF1R but added additional IL-3; assay: Cell viability assay with Ba/F3-hCSF1R cells with added IL-3; assay type: cell-based; conditions: Mus musculus, BaF3; Ba/F3 CSF1R cells with additional IL-3; read-out: Cellular Assay IC50 (μM), Ba/F3 IL-3
Protocol: as §2, §3

- MLM in vitro intrinsic clearing [1]: 60.5 µL/min/mg
- solubility kinetic [2]: 0.7 µM (≈ 0.352 µg/mL)
- IC50 ([3]; Mus musculus, BaF3, Ba/F3 cells dependent on CSF1R, with standard deviation, read-out: Cellular Assay IC50 (μM), Ba/F3 CSF1R): > 10 µM
- inhibition at 1 µM [4]: 18%
- inhibition at 1 µM [5]: 5%
- inhibition at 1 µM [6]: 69%
- inhibition at 1 µM [7]: 57%
- inhibition at 1 µM [8]: 18%
- inhibition at 1 µM [9]: 8%
- inhibition at 1 µM [10]: 3%
- inhibition at 1 µM [11]: -5%
- inhibition at 1 µM [12]: -1%
- inhibition at 1 µM [13]: 19%
- inhibition at 1 µM [14]: 26%
- inhibition at 1 µM [15]: 95%
- inhibition at 1 µM [16]: 6%
- inhibition at 1 µM [17]: 13%
- inhibition at 1 µM [18]: 7%
- inhibition at 1 µM [19]: 2%
- inhibition at 1 µM [20]: 16%
- inhibition at 1 µM [21]: 34%
- inhibition at 1 µM [22]: 14%
- inhibition at 1 µM [23]: 43%
- inhibition at 1 µM [24]: 9%
- inhibition at 1 µM [25]: 15%
- inhibition at 1 µM [26]: 11%
- inhibition at 1 µM [27]: 16%
- inhibition at 1 µM [28]: 9%
- inhibition at 1 µM [29]: 4%
- inhibition at 1 µM [30]: 65%
- inhibition at 1 µM [31]: 2%
- inhibition at 1 µM [32]: 8%
- inhibition at 1 µM [33]: 75%
- inhibition at 1 µM [34]: 11%
- inhibition at 1 µM [35]: 4%
- inhibition at 1 µM [36]: 2%
- inhibition at 1 µM [37]: 1%
- inhibition at 1 µM [38]: 23%
- inhibition at 1 µM [39]: 16%
- IC50 [40]: > 10 µM
SMILES: Cc1cccc(CN(C)c2ncnc3[nH]c(-c4ccc(NCc5ccc(C(F)(F)F)nc5)nc4)cc23)c1 [Compound 14c, N-Methyl-N-(3-methylbenzyl)-6-(6-(((6-(trifluoromethyl)pyridin-3-yl)methyl)amino)pyridin-3-yl)-7H-pyrrolo[2,3-d]pyrimidin-4-amine]
- Cellular activity in Ba/F3 CSF1R cells (in words) ([3]; Ba/F3 cells dependent on constitutively active CSF1R): completely inactive in cells
